These results are taken from ChEMBL document CHEMBL1201862, “PubChem BioAssay data set” (2004).

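Tested at 5 concentrations; 48 h exposure; 96-well plates; endpoints linearly interpolated, else capped at highest concentration. The concentration for 50% growth inhibition is given as GI50.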 Activity calls are given as the source filed them. No stated cut-off is given here; in the data, active = GI50 up to about 1.1 µM and inactive = higher.

Test systems include A549; ACHN; CAKI-1; EKVX; HCT-116; HL-60; IGROV-1; MOLT-4; Malme-3M; NCI-H23; NCI-H460; OVCAR-5; SF-539; UACC-62; A498; HCC 2998; UACC-257.
What all share (assay): NCI anticancer screen, dose series, 48 h

For `O=C(NC(=O)c1cn(CCNCCO)c(=O)[nH]c1=O)OCc1ccccc1`, the GI50 in the test with A549, in the test on ACHN, in the test on CAKI-1, in the test on EKVX, with HCT-116 and with HL-60 was > 100 µM (inactive) in each case. Further, the GI50 with IGROV-1, in the test on MOLT-4, in the test on Malme-3M, in the test with NCI-H23, in the test with NCI-H460 and in the test with OVCAR-5 was > 100 µM (inactive) throughout. Besides, the GI50 in the test on SF-539 and in the test on UACC-62 was > 100 µM (inactive) each time.

For `CC(C)(c1ccccc1)c1ccc(Oc2ccc3c(c2)-c2nc-3nc3[nH]c(nc4nc(nc5[nH]c(n2)c2ccc(Oc6ccc(C(C)(C)c7ccccc7)cc6)cc52)-c2cc(Oc5ccc(C(C)(C)c6ccccc6)cc5)ccc2-4)c2ccc(Oc4ccc(C(C)(C)c5ccccc5)cc4)cc32)cc1`, the GI50 in the test on A498, with A549, in the test on ACHN, with EKVX, with HCC 2998 and in the test with HCT-116 was > 100 µM (inactive) throughout. Moreover, the GI50 in the test on HL-60, in the test on IGROV-1, in the test with MOLT-4, with Malme-3M, with NCI-H23 and with NCI-H460 was > 100 µM (inactive) in each case. The GI50 with OVCAR-5 is > 100 µM (inactive); in the test on SF-539 it was 35 µM (inactive); in the test on UACC-257 it was > 100 µM (inactive); with UACC-62 it was > 100 µM (inactive).

On to `CN(C)CCONC(=O)C12CC3CC(CC(C3)C1)C2`, for which the GI50 in the test with A498, in the test with A549, in the test on ACHN, in the test with CAKI-1, in the test with EKVX and in the test on HCT-116 was > 100 µM (inactive) in each case. Also, the GI50 in the test with HL-60 was > 100 µM (inactive); with IGROV-1, > 100 µM (inactive); in the test with MOLT-4, > 100 µM (inactive); with Malme-3M it was 0.02 µM (active); in the test on NCI-H23 it was > 100 µM (inactive); with NCI-H460, > 100 µM (inactive). The GI50 in the test with OVCAR-5, with SF-539, in the test with UACC-257 and in the test with UACC-62 was > 100 µM (inactive) throughout.

In the case of `CN(C)/N=C(/c1nc2ccc([N+](=O)[O-])cc2nc1O)C(O)c1ccco1` (configuration not stated), the GI50 in the test with A549 was > 100 µM (inactive); in the test on ACHN, 35.4 µM (inactive); with CAKI-1 it was 48.1 µM (inactive); in the test on HCC 2998, 53 µM (inactive); with HCT-116 it was > 100 µM (inactive); in the test with HL-60, > 100 µM (inactive). Besides, the GI50 in the test with IGROV-1 was 90.4 µM (inactive); in the test on MOLT-4, > 100 µM (inactive); in the test on Malme-3M, > 100 µM (inactive); with NCI-H23 it was > 100 µM (inactive); in the test with NCI-H460, > 100 µM (inactive); with OVCAR-5 it was > 100 µM (inactive). The results for the GI50 in the test with SF-539, in the test with UACC-257 and in the test on UACC-62 were > 100 µM (inactive), > 100 µM (inactive) and 22.8 µM (inactive), respectively.

Consider `Cc1nc2c(n1CCN(C)C)C(=O)c1ccccc1C2=O`, for which the GI50 with A549 is 18.8 µM (inactive); in the test on ACHN, 14.8 µM (inactive); with EKVX it was 17.9 µM (inactive); in the test with HCC 2998, 19.7 µM (inactive); in the test with HCT-116 it was 14.5 µM (inactive); in the test on HL-60, 5.3 µM (inactive). The GI50 was 13.4 µM (inactive) with IGROV-1; 19.7 µM (inactive) with MOLT-4; 2.84 µM (inactive) with Malme-3M; 12.1 µM (inactive) in the test on NCI-H23; 9.84 µM (inactive) in the test on NCI-H460; 19.1 µM (inactive) in the test on SF-539. Besides, the GI50 was 14 µM (inactive) in the test on UACC-257 and 11.9 µM (inactive) in the test on UACC-62.

In the case of `CCc1cccc(C(C)CC)c1/N=C(/NC(=O)c1ccccc1C(=O)N/C(=N/c1c(CC)cccc1C(C)CC)SC)SC` (configuration not stated), the GI50 in the test with A549 was 47.3 µM (inactive); in the test with ACHN, 36.1 µM (inactive); in the test with CAKI-1, 42.2 µM (inactive); in the test with EKVX it was 35.6 µM (inactive); in the test with HCC 2998 it was 49.8 µM (inactive); in the test with HCT-116 it was 34.4 µM (inactive). The GI50 in the test on HL-60 was 20.9 µM (inactive); in the test with IGROV-1, 38.7 µM (inactive); in the test on MOLT-4, 29.2 µM (inactive); with Malme-3M it was 48.5 µM (inactive); with NCI-H23, 31.9 µM (inactive); in the test with NCI-H460, 50.4 µM (inactive). Further, the GI50 is 60.1 µM (inactive) in the test with OVCAR-5, 26.5 µM (inactive) in the test with SF-539, 54.3 µM (inactive) in the test with UACC-257 and 20.9 µM (inactive) in the test with UACC-62.

Regarding `CC1CN(c2ccc(Cl)cc2)CC(C)OC(=O)O1` (configuration not stated), the GI50 in the test on A549, in the test on ACHN, with CAKI-1, in the test on EKVX, in the test on HCC 2998 and with HL-60 was > 100 µM (inactive) in each case. Also, the GI50 in the test with IGROV-1, with Malme-3M, in the test on NCI-H23, with NCI-H460, in the test on OVCAR-5 and in the test with SF-539 was > 100 µM (inactive) in each case. For the same molecule, the GI50 in the test on UACC-257 and in the test with UACC-62 was > 100 µM (inactive) each time.

Regarding `CN1C(OCc2ccccc2)c2c(ccc3c2OCO3)C2C=Cc3cc4c(cc3C21)OCO4` (configuration not stated), the GI50 is 1.49 µM (inactive) in the test on A549; 1.51 µM (inactive) in the test with ACHN; 1.03 µM (active) in the test on CAKI-1; 1.62 µM (inactive) in the test on EKVX; 1.63 µM (inactive) in the test on HCC 2998; 0.398 µM (active) in the test with HCT-116. Further, the GI50 is 0.226 µM (active) in the test with HL-60; 0.792 µM (active) with IGROV-1; 0.223 µM (active) in the test with MOLT-4; 1.26 µM (inactive) in the test on Malme-3M; 1.38 µM (inactive) in the test on NCI-H23; 1.48 µM (inactive) with NCI-H460. Further, the GI50 with OVCAR-5 was 1.52 µM (inactive); with SF-539, 1.63 µM (inactive); in the test with UACC-257, 1.37 µM (inactive); with UACC-62, 1.2 µM (inactive).

Regarding `COC(=O)CCC(NC(=S)N/N=C(\C)c1ccccn1)C(=O)OC` (configuration not stated), the GI50 in the test on A498 is > 100 µM (inactive); in the test with A549, 66.8 µM (inactive); with ACHN, 28.5 µM (inactive); with EKVX it was 43.6 µM (inactive); with HCC 2998, > 100 µM (inactive); in the test on HCT-116, 60.8 µM (inactive). Further, the GI50 in the test with HL-60 was 18.5 µM (inactive); in the test with IGROV-1 it was 82.8 µM (inactive); with MOLT-4, 24.2 µM (inactive); in the test with Malme-3M, 45.4 µM (inactive); with NCI-H23, > 100 µM (inactive); in the test with NCI-H460, 65.8 µM (inactive). The GI50 in the test with OVCAR-5 was 25.9 µM (inactive); in the test with SF-539, 85.7 µM (inactive); in the test on UACC-257, 97.5 µM (inactive); in the test with UACC-62, 34.8 µM (inactive).
